Experimental data taken from patent US12077503B2, “Substituted cyclic amides and their use as herbicides” (FMC CORPORATION, priority 2015, dated 2024).

How the values were obtained:
Type in all cases: in vivo
Kochia (Kochia scoparia) [1] = assay: Test A preemergence; details: Bassia scoparia, pre-emergence, 240 h, 0 to 100 scale where 0 is no effect and 100 is complete control, read-out: Kochia plant response rating
Outline: (§1)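 Seeds sprayed preemergence with a directed soil spray, or plants at 2 to 10 cm height and one- to two-leaf stage sprayed postemergence, with test chemicals in a non-phytotoxic solvent mixture containing surfactant, in loam soil–sand blend. Injury rated visually against untreated controls after about 10 d in greenhouse, 0 (no effect) to 100 (complete control).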

[2] = test system: ryegrass, Italian (Italian ryegrass, Lolium multiflorum); assay: Test A preemergence; details: Lolium multiflorum, pre-emergence, 240 h, 0 to 100 scale where 0 is no effect and 100 is complete control, read-out: Ryegrass, Italian plant response rating
Outline: as §1

[3] = test system: barnyardgrass (Echinochloa crus-galli); assay: Test A preemergence; details: Echinochloa crus-galli, pre-emergence, 240 h, 0 to 100 scale where 0 is no effect and 100 is complete control, read-out: Barnyardgrass plant response rating
Outline: as §1

[4] = test system: giant foxtail (Setaria faberii); assay: Test A preemergence; details: Setaria faberi, pre-emergence, 240 h, 0 to 100 scale where 0 is no effect and 100 is complete control, read-out: Foxtail, Giant plant response rating
Outline: as §1

[5] = test system: pigweed (Amaranthus retroflexus); assay: Test A preemergence; details: Amaranthus retroflexus, pre-emergence, 240 h, 0 to 100 scale where 0 is no effect and 100 is complete control, read-out: Pigweed plant response rating
[6] = test system: ragweed (common ragweed, Ambrosia elatior); assay: Test A preemergence; details: Ambrosia artemisiifolia, pre-emergence, 240 h, 0 to 100 scale where 0 is no effect and 100 is complete control, read-out: Ragweed plant response rating
Outline: as §1

[7] = test system: blackgrass (Alopecurus myosuroides); assay: Test A postemergence; details: Alopecurus myosuroides, post-emergence, 240 h
Outline: as §1

Kochia (Kochia scoparia) [8] = assay: Test A postemergence; details: Bassia scoparia, post-emergence, 240 h
Outline: as §1

[9] = test system: ryegrass, Italian (Italian ryegrass, Lolium multiflorum); assay: Test A postemergence; details: Lolium multiflorum, post-emergence, 240 h, 125 g ai/ha, postemergence, visual injury vs untreated controls after approx. 10 d; 0 = no effect, 100 = complete control; read-out: Ryegrass, Italian plant response rating (0 to 100 scale)
Outline: as §1

[10] = test system: wheat (Triticum aestivum); assay: Test A postemergence; details: Triticum aestivum, post-emergence, 240 h, 125 g ai/ha, postemergence, visual injury vs untreated controls after approx. 10 d; 0 = no effect, 100 = complete control; read-out: Wheat plant response rating (0 to 100 scale)
Outline: as §1

[11] = test system: barnyardgrass (Echinochloa crus-galli); assay: Test A postemergence; details: Echinochloa crus-galli, post-emergence, 240 h
Outline: as §1

[12] = test system: giant foxtail (Setaria faberii); assay: Test A postemergence; details: Setaria faberi, post-emergence, 240 h
Outline: as §1

[13] = test system: Galium (catchweed bedstraw, Galium aparine); assay: Test A postemergence; details: Galium, post-emergence, 240 h
Outline: as §1

[14] = test system: pigweed (Amaranthus retroflexus); assay: Test A postemergence; details: Amaranthus retroflexus, post-emergence, 240 h, 125 g ai/ha, postemergence, visual injury vs untreated controls after approx. 10 d; 0 = no effect, 100 = complete control; read-out: Pigweed plant response rating (0 to 100 scale)
Outline: as §1

corn (Zea mays) = assay: Test A postemergence; details: Zea mays, post-emergence, 240 h
Outline: as §1

[15] = test system: ragweed (common ragweed, Ambrosia elatior); assay: Test A postemergence; details: Ambrosia artemisiifolia, post-emergence, 240 h, 125 g ai/ha, postemergence, visual injury vs untreated controls after approx. 10 d; 0 = no effect, 100 = complete control; read-out: Ragweed plant response rating (0 to 100 scale)
Outline: as §1

[16] = test system: sedge, umbrella (small-flower umbrella sedge, Cyperus difformis); assay: Test B flooded paddy test; details: Cyperus difformis, 250 g ai/ha, Flood; 0 to 100 scale where 0 is no effect and 100 is complete control; read-out: Sedge, Umbrella plant response rating
Outline: (§2)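 Flooding to 3 cm over soil accompanied treatment, which consisted of adding compound to the standing water around 2-leaf plants; depth was then maintained. Visual assessment versus controls followed at 13 to 15 d (scale 0–100, 0 meaning no effect).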

[17] = test system: barnyardgrass (Echinochloa crus-galli); assay: Test B flooded paddy test; details: Echinochloa crus-galli, 250 g ai/ha, Flood; 0 to 100 scale where 0 is no effect and 100 is complete control; read-out: Barnyardgrass plant response rating
Outline: as §2

[18] = test system: ducksalad (Heteranthera limosa); assay: Test B flooded paddy test; details: Heteranthera limosa, 250 g ai/ha, Flood; 0 to 100 scale where 0 is no effect and 100 is complete control; read-out: Ducksalad plant response rating
Outline: as §2

rice (Oryra sativa) = assay: Test B flooded paddy test; details: Oryza sativa, 250 g ai/ha, Flood; 0 to 100 scale where 0 is no effect and 100 is complete control; read-out: Rice plant response rating
Outline: as §2

[19] = 125 g ai/ha, preemergence, approx. 10 d

CN1C[C@H](c2ccc([Si](C)(C)C)cc2)[C@@H](C(=O)Nc2cccc(F)c2F)C1=O [Compound 1168]
30%: pest or weed control at 125 g/ha [4, 19] | pest or weed control at 125 g/ha ([13]; 125 g ai/ha, postemergence, visual injury vs untreated controls after approx. 10 d, 0 = no effect, 100 = complete control, read-out: Galium plant response rating (0 to 100 scale)) | pest or weed control at 250 g/ha (rice (Oryra sativa))
20%: plant injury at 125 g/ha [10] | pest or weed control at 125 g/ha ([12]; 125 g ai/ha, postemergence, visual injury vs untreated controls after approx. 10 d, 0 = no effect, 100 = complete control, read-out: Foxtail, Giant plant response rating (0 to 100 scale))
0%: pest or weed control at 31 g/ha (Kochia (Kochia scoparia) [1]; 31 g ai/ha, Preemergence) | pest or weed control at 125 g/ha (Kochia (Kochia scoparia) [1]; [19]) | pest or weed control at 31 g/ha ([2]; 31 g ai/ha, Preemergence) | pest or weed control at 125 g/ha [2, 19] | pest or weed control at 31 g/ha ([3]; 31 g ai/ha, Preemergence) | pest or weed control at 125 g/ha [3, 19] | pest or weed control at 31 g/ha ([4]; 31 g ai/ha, Preemergence) | pest or weed control at 31 g/ha ([5]; 31 g ai/ha, Preemergence) | pest or weed control at 125 g/ha [5, 19] | pest or weed control at 31 g/ha ([6]; 31 g ai/ha, Preemergence) | pest or weed control at 125 g/ha [6, 19] | pest or weed control at 125 g/ha ([7]; 125 g ai/ha, postemergence, visual injury vs untreated controls after approx. 10 d, 0 = no effect, 100 = complete control, read-out: Blackgrass plant response rating (0 to 100 scale)) | pest or weed control at 31 g/ha ([7]; Postemergence, 31 g ai/ha, visual injury after approx. 10 d, 0 to 100 scale, 0 no effect, 100 complete control, read-out: Plant response rating, Blackgrass) | pest or weed control at 125 g/ha (Kochia (Kochia scoparia) [8]; 125 g ai/ha, postemergence, visual injury vs untreated controls after approx. 10 d, 0 = no effect, 100 = complete control, read-out: Kochia plant response rating (0 to 100 scale)) | pest or weed control at 31 g/ha (Kochia (Kochia scoparia) [8]; Postemergence, 31 g ai/ha, visual injury after approx. 10 d, 0 to 100 scale, 0 no effect, 100 complete control, read-out: Plant response rating, Kochia) | pest or weed control at 125 g/ha [9] | pest or weed control at 125 g/ha ([11]; 125 g ai/ha, postemergence, visual injury vs untreated controls after approx. 10 d, 0 = no effect, 100 = complete control, read-out: Barnyardgrass plant response rating (0 to 100 scale)) | pest or weed control at 31 g/ha ([11]; Postemergence, 31 g ai/ha, visual injury after approx. 10 d, 0 to 100 scale, 0 no effect, 100 complete control, read-out: Plant response rating, Barnyardgrass) | pest or weed control at 31 g/ha ([12]; Postemergence, 31 g ai/ha, visual injury after approx. 10 d, 0 to 100 scale, 0 no effect, 100 complete control, read-out: Plant response rating, Foxtail, Giant) | pest or weed control at 31 g/ha ([13]; Postemergence, 31 g ai/ha, visual injury after approx. 10 d, 0 to 100 scale, 0 no effect, 100 complete control, read-out: Plant response rating, Galium) | pest or weed control at 125 g/ha [14] | plant injury at 125 g/ha (corn (Zea mays); 125 g ai/ha, postemergence, visual injury vs untreated controls after approx. 10 d, 0 = no effect, 100 = complete control, read-out: Corn plant response rating (0 to 100 scale)) | Corn plant response rating (crop injury, 0 = no effect, 100 = complete kill) at 31 g/ha (corn (Zea mays); Postemergence, 31 g ai/ha, visual injury after approx. 10 d, 0 to 100 scale, 0 no effect, 100 complete control) | pest or weed control at 125 g/ha [15] | pest or weed control at 250 g/ha [16] | pest or weed control at 250 g/ha [18]
40%: pest or weed control at 250 g/ha [17]
